Data published in patent publication US20080280862A1, “Methods, compositions, and kits for the treatment of pain” (priority 2007, published 2008).

System: TNFα
Assay: TNFα secretion by human white blood cells stimulated with PMA/ionomycin, synergy score
Format: cell-based
Set-up: key: S = Σ Idata(Idata−ILoewe) × ln dilution factors; volume over Loewe additivity
Settings: PBMC stimulated with PMA/Ionomycin
Protocol: A 100 μl suspension of diluted human white blood cells contained within each well of a polystyrene 384-well plate (NalgeNunc) was stimulated to secrete TNFα by treatment with a final concentration of 10 ng/mL phorbol 12-myristate 13-acetate (Sigma, P-1585) and 750 ng/mL ionomycin (Sigma, I-0634). Various concentrations of each test compound were added at the time of stimulation. After 16-18 hours of incubation at 37° C. in a humidified incubator, the plate was centrifuged and the supernatant transferred to a white opaque polystyrene 384-well plate (NalgeNunc, Maxisorb) coated with an anti-TNFα antibody (PharMingen, #551220). After a two-hour incubation, the plate was washed (Tecan PowerWasher 384) with PBS containing 0.1% Tween 20 and incubated for an additional one hour with another anti-TNFα antibody that was biotin labeled (PharMingen, #554511) and HRP coupled to strepavidin (PharMingen, #13047E). After the plate was washed with 0.1% Tween 20/PBS, an HRP-luminescent substrate was added to each well and light intensity measured using a LJL Analyst plate luminometer.
The synergy scores calculated for the various combinations of compounds set forth in Table 3 was calculated by the formula S=log fX log fYΣIdata(Idata−ILoewe), summed over all non-single-agent concentration pairs, and where log fX,Y are the natural logarithm of the dilution factors used for each single agent. This effectively calculates a volume between the measured and Loewe additive response surfaces, weighted towards high inhibition and corrected for varying dilution factors.

[1] = combination with Hydrocortisone

Row | SMILES | Synergy Score based on TNF-α inhibition (combination with Betamethasone) | Synergy Score based on TNF-α inhibition (combination with Budesonide) | Synergy Score based on TNF-α inhibition (combination with Dexamethasone) | Synergy Score based on TNF-α inhibition [1] | Synergy Score based on TNF-α inhibition (combination with Prednisolone) | Synergy Score based on TNF-α inhibition (combination with Triamcinolone) | Synergy Score based on TNF-α inhibition (combination with Clobetasol) | Synergy Score based on TNF-α inhibition (combination with Diflorasone)
1 | CN1CCC(=C2c3ccccc3C=Cc3ccccc32)CC1 [Cyproheptadine] | 0.8 | 0.56 | 1.3 | 0.75 | 1.3 | 0.57 |  | 
2 | CNCCCN1c2ccccc2CCc2ccccc21 [Desipramine] | 0.69 | 1 | 1.6 | 0.74 | 1.3 | 0.44 | 0.52 | 0.5
3 | CN(C)CCCN1c2ccccc2CCc2ccccc21 [Imipramine] | 0.34 | 0.88 |  | 0.82 | 0.61 | 0.34 |  | 0.43
4 | CN1CCC(=C2c3ccccc3CC(=O)c3sccc32)CC1 [Ketotifen] | 0.37 | 0.15 | 1.6 | 0.31 | 0.78 | 0.15 |  | 
5 | CNCCCC1c2ccccc2C=Cc2ccccc21 [Protriptyline] | 0.53 | 1.2 | 1.3 | 0.68 | 1.1 | 0.37 | 0.95 | 0.67
